Columns and labels:
[1] = target: G-protein coupled receptor 6 (Homo sapiens, UniProt P46095); experiment: Modulation activity at GPR6 receptor (unknown origin) expressed in CHO-K1 cells assessed as inhibition of constitutive cAMP activity incubated for 45 mins by Perkin Elmer Lance HTRF Ultrac-AMP assay; type: functional, cell-based
[2] = tested on: Mus musculus; experiment: Reversal of haloperidol-induced catalepsy in C57BL6 mouse model of Parkinson's disease assessed as reduction in catalepsy intensity index at 30 mg/kg, ip dosed along with haloperidol and measured after 30 mins relative to untreated control; type: functional; parameters: scale not given: the % may be the effect or the level left
[3] = tested on: Mus musculus; experiment: Reversal of haloperidol-induced catalepsy in C57BL6 mouse model of Parkinson's disease assessed as reduction in catalepsy intensity index at 10 mg/kg, ip dosed along with haloperidol and measured after 30 mins relative to untreated control; type: functional; parameters: scale not given: the % may be the effect or the level left
[4] = tested on: Mus musculus; experiment: Reversal of haloperidol-induced catalepsy in C57BL6 mouse model of Parkinson's disease assessed as reduction in catalepsy intensity index at 30 mg/kg, ip dosed along with haloperidol and measured after 120 mins relative to untreated control; type: functional; parameters: scale not given: the % may be the effect or the level left
[5] = tested on: Mus musculus; experiment: Reversal of haloperidol-induced catalepsy in C57BL6 mouse model of Parkinson's disease assessed as reduction in catalepsy intensity index at 10 mg/kg, ip dosed along with haloperidol and measured after 120 mins relative to untreated control; type: functional; parameters: scale not given: the % may be the effect or the level left
[6] = tested on: Rattus norvegicus; experiment: Reversal of haloperidol-induced catalepsy in Sprague-Dawley rat model of Parkinson's disease assessed as reduction in catalepsy intensity index at 10 mg/kg, sc dosed along with haloperidol and measured after 30 mins relative to untreated control; type: functional; parameters: scale not given: the % may be the effect or the level left
[7] = tested on: Mus musculus; experiment: Reversal of haloperidol-induced catalepsy in C57BL6 mouse model of Parkinson's disease assessed as reduction in catalepsy intensity index at 10 mg/kg, sc dosed along with haloperidol and measured after 120 mins relative to untreated control; type: functional; parameters: scale not given: the % may be the effect or the level left

Chain of G-protein coupled receptor 6 (P46095 whole entry): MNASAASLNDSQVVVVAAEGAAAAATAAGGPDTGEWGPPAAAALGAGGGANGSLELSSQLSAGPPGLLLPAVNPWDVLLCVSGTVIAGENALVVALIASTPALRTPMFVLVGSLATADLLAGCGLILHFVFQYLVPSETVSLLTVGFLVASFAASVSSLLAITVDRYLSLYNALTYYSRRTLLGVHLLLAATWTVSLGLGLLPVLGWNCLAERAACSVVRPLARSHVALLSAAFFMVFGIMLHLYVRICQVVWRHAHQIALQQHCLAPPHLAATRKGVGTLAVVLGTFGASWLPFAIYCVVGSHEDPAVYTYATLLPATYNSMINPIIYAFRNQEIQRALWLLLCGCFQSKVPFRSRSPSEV

| Compound | IC50 [1] [µM] | also measured |
| --- | --- | --- |
| COc1ccc(C(=O)C2CCN(c3nc4cnccc4nc3NC3CC3)CC2)c(F)c1 | 0.021 |  |
| COc1ccc(C(=O)N2CCN(c3nc4ccccc4nc3NC3CC3)CC2)cc1Cl | 10.1 to 17.7 |  |
| N#Cc1ccc2nc(NC3CC3)c(N3CCN(Cc4cc(Cl)ccc4Cl)CC3)nc2c1 |  | Activity [2]: 27.4%; Activity [3]: 42%; Activity [4]: 15.7%; Activity [5]: 18.8% |
| Fc1ccc(F)c(CN2CCN(c3nc4cncc(Cl)c4nc3NC3CC3)CC2)c1 | 0.062 |  |
| CC(C)Nc1nc2ccccc2nc1N1CCC(Oc2ccc(Cl)cc2F)CC1 | 0.051 |  |
| Clc1cccc(Cl)c1CN1CCN(c2nc3ccccc3nc2NC2CC2)CC1.O=C(O)C(F)(F)F |  | Activity [2]: 40.4%; Activity [4]: 29.6% |
| Clc1ccc(Cl)c(CN2CCN(c3nc4ccccc4nc3NC3CC3)CC2)c1.O=C(O)C(F)(F)F |  | Activity [2]: 48.1%; Activity [4]: 41.4% |
| CC1CC1Nc1nc2cnncc2nc1N1CCC([C@@H](F)c2ccc(F)cc2F)CC1 (stereo partly specified) | 0.145 |  |
| Fc1ccc(OC2CCN(c3nc4cnccc4nc3NC3CC3)CC2)c(F)c1 | 1.1 |  |
| COc1ccc(C(=O)C2CCN(c3nc4c(C#N)nccc4nc3NC3CC3)CC2)c(F)c1 | 0.043 |  |
| COc1ccc(OC2CCN(c3nc4c(N5CCOCC5)nccc4nc3NC3CC3)CC2)c(F)c1 | 0.114 |  |
| Fc1ccc(CN2CCN(c3nc4cnccc4nc3NC3CC3)CC2)c(F)c1 | 0.021 |  |
| Fc1ccc(CC2CCN(c3nc4cnccc4nc3NC3CC3)CC2)c(F)c1 | 0.019 |  |
| Cc1nnc(C)c2nc(N3CCC(Oc4ccc(F)cc4F)CC3)c(NC(C)C)nc12 | 0.06 |  |
| COc1ccc(OC2CCN(c3nc4cnncc4nc3NC3CC3)CC2)c(F)c1 | 0.036 |  |
| Cc1nncc2nc(N3CCC(Oc4ccc(F)cc4F)CC3)c(NC(C)C)nc12 | 0.031 |  |
| Cc1cccc(CN2CCN(c3nc4ncccc4nc3NC3CC3)CC2)c1 | 0.84 to 24.6 |  |
| COc1ccc(C(=O)C2CCN(c3nc4c(N5CCOCC5)nccc4nc3NC3CC3)CC2)c(F)c1 | 0.717 |  |
| C[C@H](CO)Nc1nc2ccccc2nc1N1CCN(Cc2cc(Cl)ccc2Cl)CC1 | 1.57 |  |
| Clc1cccc(CN2CCN(c3nc4ccccc4nc3Nc3cccnc3)CC2)c1.O=C(O)C(F)(F)F |  | Activity [2]: 13.6%; Activity [4]: 15.4% |
| CC(C)Nc1nc2ccc(C#N)cc2nc1N1CCN(Cc2cc(Cl)ccc2Cl)CC1 | 0.31 |  |
| CC(C)Nc1nc2ccc(C#N)cc2nc1N1CCC([C@H](F)c2cc(F)ccc2F)CC1 | 0.082 |  |
| N#Cc1ccc2nc(NC3CC3)c(N3CCC(Cc4ccc(F)cc4F)CC3)nc2c1.O=C(O)C(F)(F)F |  | Activity [6]: 36.9%; Activity [7]: 25.1% |
| CN1CCN(C(=O)c2cc3nc(NC4CC4)c(N4CCC(C(=O)c5cc(C#N)ccc5F)CC4)nc3cn2)CC1 | 0.054 |  |

From ChEMBL document CHEMBL4421718, “Quinoxaline derivatives as gpr6 modulators” (2015)
